Reference: US20070293530A1, “SULFAMIDE AND SULFAMATE DERIVATIVES AS HISTONE DEACETYLASE INHIBITORS” (METHYLGENE INC., priority 2006, published 2007)

Target: HDAC enzyme
Assay: Inhibition of Histone Deacetylase Enzymatic Activity (Assay Examples 1 and 2)
Type: biochemical
Conditions: HDAC isoform not specified; fluorogenic Boc-Lys(Ac)-AMC or Boc-Lys(trifluoroacetyl)-AMC substrate
Experimental: The following protocol is used to assay the compounds of the invention. In the assay, the buffer used is 25 mM HEPES, pH 8.0, 137 mM NaCl, 2.7 mM KCl, 1 mM MgCl2 and the subtrate is Boc-Lys(Ac)-AMC in a 50 mM stock solution in DMSO. The enzyme stock solution is 4.08 μg/mL in buffer.
The compounds are pre-incubated (2 μl in DMSO diluted to 13 μl in buffer for transfer to assay plate) with enzyme (20 μl of 4.08 μg/ml) for 10 minutes at room temperature (35 μl pre-incubation volume). The mixture is pre-incubated for 5 minutes at room temperature. The reaction is started by bringing the temperature to 37° C. and adding 16 μl substrate. Total reaction volume is 50 μl. The reaction is stopped after 20 minutes by addition of 50 μl developer, prepared as directed by Biomol (Fluor-de-Lys developer, Cat. #KI-105). A plate is incubated in the dark for 10 minutes at room temperature before reading (λEx=360 nm, λEm=470 nm, Cutoff filter at 435 nm).
Alternatively, HDAC inhibitory activity was determined using the following assay.
A 30 mM stock of Boc-Lys(trifluoroacetyl)-AMC substrate is prepared in DMSO. 2 μL of test compound in DMSO is diluted to 50 μL in buffer (25 mM HEPES, pH 8.0, 137 mM NaCl, 2.7 mM KCl, 1 mM MgCl2, 0.1% BSA) and pre-incubated with HDAC enzyme (30 μL of a final enzyme concentration of 0.1-0.2 nM) for 10 minutes at room temperature. Reaction is started by adding 18 μL Boc-Lys(trifluoroacetyl)-AMC substrate and incubating at 37° C. for 20-30 minutes. The reaction is stopped by adding 50 μL trypsin (1 mg/mL) and a known HDAC inhibitor (such as LAQ-824). The plate is then incubated in the dark for 20 minutes at room temperature and read with Ex=360 nm, Em=470 nm, cutoff filter at 435 nm.
In the table, A≦0.2 μM; 0.2 μM<B≦0.5 μM; […]; and 1 μM<D≦6 μM.

Row | SMILES | IC50
1 | NS(=O)(=O)NCCCCCC(=O)Nc1cccc(-c2ccccc2)c1 [Compound 4, N-(Biphenyl-3-yl)-6-(sulfamoylamino)hexanamide] | ≤ 200 nM
2 | CC(=O)N[C@@H](CCCCNS(N)(=O)=O)C(=O)Nc1cccc2cccnc12 [Compound 34, (S)-2-Acetamido-N-(quinolin-8-yl)-6-(sulfamoylamino)hexanamide] | ≤ 200 nM
3 | COc1cc(NC(=O)CCCCCNS(N)(=O)=O)c2ncccc2c1 [Compound 40, N-(6-methoxy-quinolin-8-yl)-6-(sulfamoyl-amino)-hexanamide] | ≤ 200 nM
4 | NS(=O)(=O)NCCCC[C@H](NC(=O)c1cc2ccccc2o1)C(=O)Nc1cccc2cccnc12 [Compound 51, (S)-N-(1-oxo-1-(quinolin-8-ylamino)-6-(sulfamoyl-amino)-hexan-2-yl)-benzofuran-2-carboxamide] | 200 to 500 nM
5 | NS(=O)(=O)NCCCC[C@H](NC(=O)OCc1ccccc1)C(=O)Nc1cccc2cccnc12 [Compound 55, (S)-benzyl 1-oxo-1-(quinolin-8-ylamino)-6-(sulfamoyl-amino)-hexan-2-ylcarbamate] | ≤ 200 nM
6 | NS(=O)(=O)NCCCC[C@H](NC(=O)OCc1ccccc1)C(=O)Nc1nc(-c2ccccc2)cs1 [Compound 60, (S)-benzyl 1-oxo-1-(4-phenylthiazol-2-ylamino)-6-(sulfamoyl-amino)-hexan-2-ylcarbamate] | ≤ 200 nM
7 | COc1ccc2[nH]c(C)c(CC(=O)N[C@@H](CCCCNS(N)(=O)=O)C(=O)Nc3cccc4cccnc34)c2c1 [Compound 62, (S)-2-(2-(5-methoxy-2-methyl-1H-indol-3-yl)acetamido)-N-(quinolin-8-yl)-6-(sulfamoyl-amino)-hexanamide] | 200 to 500 nM
8 | NS(=O)(=O)NCCCCCC(=O)Nc1cc(OCc2ccccn2)cc2cccnc12 [Compound 79, N-(6-(pyridin-2-ylmethoxy)-quinolin-8-yl)-6-(sulfa-moylamino)-hexanamide] | ≤ 200 nM
9 | COc1ccc(S(=O)(=O)N[C@@H](CCCCNS(N)(=O)=O)C(=O)Nc2cccc3cccnc23)cc1OC [Compound 201, (S)-2-(3,4-dimethoxyphenylsulfonamido)-N-(quinolin-8-yl)-6-(sulfamoylamino)hexanamide] | 200 to 500 nM
10 | NS(=O)(=O)NCCCC[C@H](NC(=O)NCc1ccccc1)C(=O)Nc1cccc2cccnc12 [Compound 203, (S)-2-(3-benzylureido)-N-(quinolin-8-yl)-6-(sulfamoylamino)hexanamide] | 200 to 500 nM
11 | COc1ccc(C(=O)N[C@@H](CCCCNS(N)(=O)=O)C(=O)Nc2cccc3cccnc23)cc1OC [Compound 207, (S)-3,4-dimethoxy-N-(1-oxo-1-(quinolin-8-ylamino)-6-(sulfamoyl-amino)hex-an-2-yl)-benzamide] | 200 to 500 nM
12 | NS(=O)(=O)NCCCC[C@H](NC(=O)c1cccc2cccnc12)C(=O)Nc1cccc2cccnc12 [Compound 209, (S)-N-(1-oxo-1-(quinolin-8-ylamino)-6-(sulfamoyl-amino)hex-an-2-yl)-quinoline-8-carboxamide] | 200 to 500 nM
13 | NS(=O)(=O)NCCCC[C@H](NC(=O)Nc1ccccc1)C(=O)Nc1cccc2cccnc12 [Compound 211, (S)-2-(3-phenyl-ureido)-N-(quinolin-8-yl)-6-(sulfa-moylamino)-hexanamide] | ≤ 200 nM
14 | NS(=O)(=O)NCCCC[C@H](NC(=O)Cc1ccccc1)C(=O)Nc1nc(-c2ccccc2)cs1 [Compound 230a, (S)-2-(2-phenylacetamido)-N-(4-phenylthiazol-2-yl)-6-(sulfamoylamino)hexanamide] | ≤ 200 nM
15 | NS(=O)(=O)NCCCC[C@H](NC(=O)NCc1ccc(F)cc1)C(=O)Nc1nc(-c2ccccc2)cs1 [Compound 240, (S)-2-(3-(4-fluoro-benzyl)-ureido)-N-(4-phenyl-thiazol-2-yl)-6-(sulfa-moylamino)-hexanamide] | 200 to 500 nM
16 | NS(=O)(=O)NCCCC[C@H](NC(=O)OCc1cccc(Cl)c1)C(=O)Nc1nc(-c2ccccc2)cs1 [Compound 242, (S)-3-chlorobenzyl 1-oxo-1-(4-phenyl-thiazol-2-ylamino)-6-(sulfa-moylamino)-hexan-2-ylcarbamate] | ≤ 200 nM

Row | SMILES | IC50
17 | CCOC(=O)N[C@@H](CCCCNS(N)(=O)=O)C(=O)Nc1nc(-c2ccccc2)cs1 [Compound 252, (S)-ethyl 1-oxo-1-(4-phenylthiazol-2-ylamino)-6-(sulfamoylamino)hexan-2-ylcarbamate] | 200 to 500 nM
18 | COc1cc(NC(=O)[C@H](CCCCNS(N)(=O)=O)NC(=O)OCc2ccccc2)c2ncccc2c1 [Compound 270, (S)-benzyl 1-(6-methoxy-quinolin-8-ylamino)-1-oxo-6-(sulfamoyl-amino)-hexan-2-ylcarbamate] | ≤ 200 nM
19 | NS(=O)(=O)NCCCC[C@H](NC(=O)OCc1ccccc1)C(=O)Nc1cnc2ccccc2c1 [Compound 274, (S)-benzyl 1-oxo-1-(quinolin-3-ylamino)-6-(sulfamoyl-amino)-hexan-2-ylcarbamate] | ≤ 200 nM
20 | COc1ccc(-c2nc(NC(=O)[C@H](CCCCNS(N)(=O)=O)NC(=O)OCc3ccccc3)sc2C)cc1 [Compound 289, (S)-benzyl 1-(4-(4-methoxy-phenyl)-5-methyl-thiazol-2-ylamino)-1-oxo-6-(sulfamoyl-amino)-hexan-2-ylcarbamate] | 200 to 500 nM
21 | NS(=O)(=O)NCCCC[C@H](NC(=O)OCc1ccccc1)C(=O)Nc1nc(-c2ccc(C(F)(F)F)cc2)cs1 [Compound 308, (S)-benzyl 1-oxo-6-(sulfamoyl-amino)-1-(4-(4-(trifluoro-methyl)-phenyl)-thiazol-2-ylamino)-hexan-2-ylcarbamate] | ≤ 200 nM
22 | COc1cccc(-c2csc(NC(=O)[C@H](CCCCNS(N)(=O)=O)NC(=O)OCc3ccccc3)n2)c1 [Compound 309, (S)-benzyl 1-(4-(3-methoxy-phenyl)-thiazol-2-ylamino)-1-oxo-6-(sulfamoyl-amino)-hexan-2-ylcarbamate] | 200 to 500 nM
23 | NS(=O)(=O)NCCCC[C@H](NC(=O)OCc1ccccc1)C(=O)Nc1cccc(-c2ccccc2)c1 [Compound 310, (S)-benzyl 1-(biphenyl-3-ylamino)-1-oxo-6-(sulfamoyl-amino)-hexan-2-ylcarbamate] | ≤ 200 nM
24 | NS(=O)(=O)NCCCC[C@H](NC(=O)OCc1ccccc1)C(=O)Nc1nc(C(=O)Nc2ccccc2)cs1 [Compound 313, (S)-benzyl 1-oxo-1-(4-(phenyl-carbamoyl)-thiazol-2-ylamino)-6-(sulfamoyl-amino)-hexan-2-ylcarbamate] | ≤ 200 nM
25 | COc1ccc(NC(=O)c2csc(NC(=O)[C@H](CCCCNS(N)(=O)=O)NC(=O)OCc3ccccc3)n2)cc1 [Compound 314, (S)-benzyl 1-(4-(4-methoxy-phenyl-carbamoyl)-thiazol-2-ylamino)-1-oxo-6-(sulfamoyl-amino)-hexan-2-ylcarbamate] | ≤ 200 nM
26 | NS(=O)(=O)NCCCC[C@H](NC(=O)OCc1ccccc1)C(=O)Nc1nc(-c2ccc(F)cc2)cs1 [Compound 318, (S)-benzyl 1-(4-(4-fluoro-phenyl)-thiazol-2-ylamino)-1-oxo-6-(sulfamoyl-amino)-hexan-2-ylcarbamate] | 200 to 500 nM
27 | COC(=O)N[C@@H](CCCCNS(N)(=O)=O)C(=O)Nc1nc(-c2ccccc2)cs1 [Compound 319, (S)-methyl 1-oxo-1-(4-phenyl-thiazol-2-ylamino)-6-(sulfamoyl-amino)-hexan-2-ylcarbamate] | ≤ 200 nM
28 | COc1ccc(-c2nc([C@H](CCCCNS(N)(=O)=O)NC(=O)OCc3ccccc3)c[nH]2)cc1 [Compound 327, (S)-benzyl 1-(2-(4-methoxyphenyl)-1H-imidazol-4-yl)-5-(sulfamoylamino)pentylcarbamate] | ≤ 200 nM
29 | NS(=O)(=O)NCCCC[C@H](NC(=O)OCc1ccccc1)c1n[nH]c(-c2ccccc2)n1 [Compound 335, (S)-benzyl 1-(5-phenyl-1H-1,2,4-triazol-3-yl)-5-(sulfamoylamino)pentylcarbamate] | ≤ 200 nM
30 | Cc1ccc(-c2nc([C@H](CCCCNS(N)(=O)=O)NC(=O)OCc3ccccc3)c[nH]2)cc1 [Compound 348, (S)-benzyl 5-(sulfamoyl-amino)-1-(2-p-tolyl-1H-imidazol-4-yl)pentyl-carbamate] | 200 to 500 nM
31 | NS(=O)(=O)NCCCC[C@H](NC(=O)OCc1ccccc1)c1csc(-c2ccc(Br)cc2)n1 [Compound 361, (S)-benzyl 1-(2-(4-bromo-phenyl)-thiazol-4-yl)-5-(sulfamoyl-amino)-pentyl-carbamate] | 200 to 500 nM
32 | NS(=O)(=O)NCCCC[C@H](NC(=O)OCc1ccccc1)c1csc(Nc2ccccc2)n1 [Compound 364, (S)-benzyl 1-(2-(phenyl-amino)-thiazol-4-yl)-5-(sulfamoyl-amino)-pentyl-carbamate] | 500 to 1000 nM
